Experimental findings from ChEMBL document CHEMBL1201862, “PubChem BioAssay data set” (2004) are described below.

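Tested at 5 concentrations; 48 h exposure; 96-well plates; endpoints linearly interpolated, else capped at highest concentration. GI50 = concentration required for 50% inhibition of growth.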 The source made the active and inactive calls. Cut-off read from the data, not from the text of the source: active = GI50 up to about 1.1 µM and inactive = higher.

Among the test systems are NCI-H23; PC-3; CAKI-1; SK-MEL-28; RPMI-8226; Hs-578T; K562; MDA-N; ACHN; T47D; SF-268; A498; SK-MEL-2; SNB-75; SF-539; HT-29; SK-MEL-5; SR; HOP-62.
Holding throughout (test): NCI-60 cell line screen, 48 h

As for `CCOC(=O)C1=CN2C(=N[C@H]3CCCC[C@@H]32)NC1=O`, the GI50 in the test on NCI-H23, in the test with PC-3, in the test on CAKI-1, in the test on SK-MEL-28, in the test on RPMI-8226 and in the test on Hs-578T was > 100 µM (inactive) throughout. Moreover, the GI50 in the test on K562, with MDA-N, in the test on ACHN, with T47D, in the test on SF-268 and in the test on A498 was > 100 µM (inactive) each time. Further, the GI50 in the test with SK-MEL-2, in the test with SNB-75, in the test with SF-539, in the test on HT-29 and in the test with SK-MEL-5 was > 100 µM (inactive) each time.
Regarding `Cc1ccc([N+](=O)[O-])c2c(NCCC[N+](C)(C)[O-])c3ccccc3nc12`, the GI50 with NCI-H23 is 0.573 µM (active); in the test on SR, 0.218 µM (active); in the test on PC-3, 0.755 µM (active); in the test with CAKI-1 it was 21 µM (inactive); in the test on SK-MEL-28, 3.68 µM (inactive); in the test on RPMI-8226, 2.74 µM (inactive). The GI50 was 3.24 µM (inactive) in the test on Hs-578T; 1.52 µM (inactive) with K562; 5.57 µM (inactive) in the test on ACHN; 0.916 µM (active) in the test on T47D; 2.47 µM (inactive) in the test with SF-268; 1.89 µM (inactive) in the test with A498. Besides, the GI50 in the test with HOP-62 was 2.56 µM (inactive); in the test with SK-MEL-2, 0.773 µM (active); in the test with SNB-75, 0.655 µM (active); in the test on SF-539, 2.6 µM (inactive); in the test on HT-29, 1.48 µM (inactive); in the test with SK-MEL-5, 0.998 µM (active).
With `CN1C(C(=O)Nc2ccccn2)=C(O)c2ccccc2S1(=O)=O` [PIROXICAM], the GI50 with NCI-H23, with SR, with PC-3, in the test with CAKI-1, in the test with SK-MEL-28 and in the test with RPMI-8226 was > 100 µM (inactive) throughout. Besides, the GI50 in the test on MDA-N, in the test with ACHN, in the test with T47D, with SF-268, with HOP-62 and in the test with SK-MEL-2 was > 100 µM (inactive) each time. Besides, the GI50 in the test with SNB-75, with SF-539, in the test on HT-29 and in the test with SK-MEL-5 was > 100 µM (inactive) throughout.
Regarding `CCOC(=O)[C@@H]1ON2O[C@@H](OC3CCCC3(c3ccccc3)c3ccccc3)C[C@H]3OC(=O)[C@@H]1C32` (some centres undefined), the GI50 with NCI-H23 was 18.4 µM (inactive); in the test with SR, 23.1 µM (inactive); in the test on CAKI-1, 17.2 µM (inactive); in the test on RPMI-8226, 35.6 µM (inactive); in the test on Hs-578T, 31.4 µM (inactive); in the test on MDA-N, 20.7 µM (inactive). For the same compound, the GI50 was 19.5 µM (inactive) in the test on ACHN; 22.3 µM (inactive) in the test on T47D; 28.7 µM (inactive) with SF-268; > 100 µM (inactive) in the test on A498; 31 µM (inactive) with HOP-62; 32.4 µM (inactive) in the test on SNB-75. Further, the GI50 was 24.9 µM (inactive) in the test with SF-539, 15.2 µM (inactive) in the test with HT-29 and 32 µM (inactive) in the test on SK-MEL-5.
Turning to `NNC(=O)c1cccc2c1Oc1ccccc1S2`, the GI50 in the test with NCI-H23, with SR, with PC-3, with CAKI-1, in the test on SK-MEL-28 and in the test on RPMI-8226 was > 100 µM (inactive) throughout. Further, the GI50 in the test with Hs-578T is 31.6 µM (inactive); in the test with K562, > 100 µM (inactive); with ACHN, > 100 µM (inactive); with T47D, 95.1 µM (inactive); with SF-268 it was 76.2 µM (inactive); in the test on A498, 18.2 µM (inactive). The GI50 with HOP-62 was 95.9 µM (inactive); with SK-MEL-2, > 100 µM (inactive); in the test on SNB-75 it was 50.6 µM (inactive); with SF-539, > 100 µM (inactive); in the test on HT-29 it was > 100 µM (inactive); in the test on SK-MEL-5, > 100 µM (inactive).
As for `O=C(O)[C@H]1CCCN1CP(=O)(O)CN1CCC[C@@H]1C(=O)O`, the GI50 with NCI-H23, in the test with PC-3, with CAKI-1, in the test with SK-MEL-28, in the test with Hs-578T and in the test on K562 was > 100 µM (inactive) each time. Besides, the GI50 with MDA-N, in the test on ACHN, in the test on T47D, with SF-268, in the test on HOP-62 and in the test with SK-MEL-2 was > 100 µM (inactive) in each case. The GI50 with SNB-75, in the test on HT-29 and in the test with SK-MEL-5 was > 100 µM (inactive) each time.
For the compound `Cc1ccc(N2C(=O)C3c4[nH]c5ccc(C)cc5c4C4CCC(C(C)(C)C)CC4C3C2=O)cc1` (centres undefined), the GI50 was 16.6 µM (inactive) with NCI-H23; 16.6 µM (inactive) in the test with PC-3; 17.6 µM (inactive) with CAKI-1; 22.4 µM (inactive) in the test with SK-MEL-28; 12.9 µM (inactive) with RPMI-8226; 10.4 µM (inactive) with Hs-578T. Besides, the GI50 in the test on K562 is 4.05 µM (inactive); in the test with MDA-N, 21 µM (inactive); with T47D it was 7.5 µM (inactive); in the test on SF-268, 11.9 µM (inactive); in the test with HOP-62, 10.8 µM (inactive); in the test with SK-MEL-2 it was 35.8 µM (inactive). The GI50 in the test with HT-29 was 15.6 µM (inactive); in the test on SK-MEL-5 it was 32.1 µM (inactive).
Turning to `CCc1n[nH]c(=O)n1/N=C(\C)c1ccccc1`, the GI50 in the test with NCI-H23, in the test with PC-3, in the test on CAKI-1, in the test with SK-MEL-28, with RPMI-8226 and with Hs-578T was > 100 µM (inactive) throughout. The GI50 in the test with K562, with MDA-N, in the test with ACHN, with T47D, in the test on SF-268 and with A498 was > 100 µM (inactive) each time. The GI50 in the test with HOP-62, in the test on SK-MEL-2, in the test with SF-539, in the test with HT-29 and with SK-MEL-5 was > 100 µM (inactive) throughout.
In the case of `CCCCCCCCCC(=O)NC(CCC(=O)N(CCNC(=O)c1nc(-c2ccccc2)oc1-c1ccccc1)Cc1ccccc1)C(=O)O` (centres undefined), the GI50 in the test with NCI-H23 was 17.9 µM (inactive); with CAKI-1, 16.7 µM (inactive); in the test on SK-MEL-28, 22.3 µM (inactive); in the test on RPMI-8226, 17.3 µM (inactive); in the test on MDA-N, 18.4 µM (inactive); in the test with ACHN, 18.8 µM (inactive). Moreover, the GI50 is 20.4 µM (inactive) in the test with T47D; 16.5 µM (inactive) with SF-268; 21.2 µM (inactive) with A498; 16.4 µM (inactive) in the test with HOP-62; 14.5 µM (inactive) in the test on SNB-75; 24 µM (inactive) in the test with SF-539. The GI50 in the test on HT-29 is 18 µM (inactive); in the test on SK-MEL-5 it was 16.2 µM (inactive).
In the case of `C=C1C(NC)CCC23CC24CCC2(C)C(C(C)=O)C(O)CC2(C)C4CCC13` (centres undefined), the GI50 in the test with NCI-H23 is > 100 µM (inactive); in the test on PC-3, 78 µM (inactive); in the test with CAKI-1 it was > 100 µM (inactive); in the test with SK-MEL-28, > 100 µM (inactive); in the test on RPMI-8226, 45 µM (inactive); in the test with Hs-578T, > 100 µM (inactive). For the same compound, the GI50 in the test on K562 is 71.3 µM (inactive); with MDA-N, 63.7 µM (inactive); in the test with ACHN, > 100 µM (inactive); in the test on T47D, > 100 µM (inactive); in the test on SF-268, > 100 µM (inactive); in the test with A498, > 100 µM (inactive). Further, the GI50 was > 100 µM (inactive) in the test on SK-MEL-2; 49.4 µM (inactive) in the test with SNB-75; 59 µM (inactive) in the test on SF-539; 21.9 µM (inactive) with HT-29; > 100 µM (inactive) in the test with SK-MEL-5.
Take `Cc1ccccc1-n1c(=O)c2ncn(C3CCCO3)c2n(-c2ccccc2C)c1=S` (centres undefined): the GI50 in the test on NCI-H23, in the test with CAKI-1, with RPMI-8226, in the test on Hs-578T, in the test on K562 and in the test on MDA-N was > 100 µM (inactive) each time. The GI50 in the test with ACHN, in the test on T47D, in the test with SF-268, in the test with A498, in the test with HOP-62 and in the test with SK-MEL-2 was > 100 µM (inactive) each time. For the same compound, the GI50 with SNB-75 was 79.4 µM (inactive); with SF-539 it was > 100 µM (inactive); in the test with HT-29, > 100 µM (inactive); in the test on SK-MEL-5, > 100 µM (inactive).
`CN(C)c1ccc(/C=C/C=c2/c3ccccc3n3c2cc(-c2ccccc2)[n+]3C)cc1`: the GI50 was 0.188 µM (active) in the test on NCI-H23; 0.133 µM (active) in the test on PC-3; 0.251 µM (active) in the test on CAKI-1; 0.459 µM (active) in the test on SK-MEL-28; 0.149 µM (active) in the test on RPMI-8226; 0.0512 µM (active) in the test on K562. Also, the GI50 is 0.234 µM (active) with MDA-N; 0.218 µM (active) in the test on ACHN; 0.0735 µM (active) with T47D; 0.497 µM (active) with SF-268; 0.387 µM (active) in the test with A498; 0.303 µM (active) with HOP-62. In addition, the GI50 with SK-MEL-2 is 4.54 µM (inactive); in the test on SNB-75 it was 0.336 µM (active); with SF-539, 0.171 µM (active); in the test with HT-29 it was 0.275 µM (active); with SK-MEL-5, 0.169 µM (active).
